# PubChem BioAssay (NCI)
#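 Compound exposure: 48 hours, 5 concentrations, 96-well plates. At the TGI there is no net growth.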
# Legend:
# Assay in all cases: NCI-60 cell line screen, 48 h
# [1] = system: DU-145 prostate
# [2] = system: HCC-2998 colon
# [3] = system: CCRF-CEM leukemia
# [4] = system: OVCAR-4 ovarian
# [5] = system: MDA-MB-231 breast
# [6] = system: RXF 393 renal
# [7] = system: A498 renal
# [8] = system: MDA-MB-435
# [9] = system: T-47D breast
# [10] = system: SW-620 colon
# [11] = system: NCI-H226 lung
# [12] = system: LOX IMVI melanoma
# [13] = system: SF-295 CNS
# [14] = system: COLO 205 colon
# [15] = system: MDA-N
# [16] = system: CAKI-1 renal
# [17] = system: HL-60(TB) leukemia
# [18] = system: SNB-75 CNS
# [19] = system: ACHN renal
# [20] = system: RPMI-8226 leukemia
# [21] = system: SK-MEL-28 melanoma
# [22] = system: SK-OV-3 ovarian
# [23] = system: MOLT-4 leukemia
# [24] = system: PC-3 prostate
# [25] = system: HS 578T breast
# [26] = system: HOP-92 NSCLC
# [27] = system: NCI/ADR-RES ovarian
# [28] = system: SN12C renal
# [29] = system: TK-10 renal
# [30] = system: A549 NSCLC
# [31] = system: SNB-19 CNS
# [32] = system: K-562 leukemia
# [33] = system: SR leukemia
# [34] = system: HCT-116 colon
# [35] = system: HOP-62 NSCLC
# [36] = system: SF-539 CNS
# [37] = system: OVCAR-3 ovarian
# [38] = system: SF-268 CNS
# [39] = system: NCI-H23 lung
# [40] = system: UO-31 renal
# [41] = system: HT29 colon
# [42] = system: SK-MEL-5 melanoma
# [43] = system: MCF7 breast
# [44] = system: UACC-257 melanoma
# [45] = system: NCI-H460 lung
# [46] = system: U251 CNS
# [47] = system: KM12 colon
# [48] = system: SK-MEL-2 melanoma
# [49] = system: OVCAR-8 ovarian
# [50] = system: M14 melanoma
# [51] = system: UACC-62 melanoma
# [52] = system: 786-0 renal
# [53] = system: OVCAR-5 ovarian
# [54] = system: MALME-3M melanoma
# [55] = system: NCI-H522 lung
# [56] = system: BT-549 breast
# [57] = system: IGROV1 ovarian
# [58] = system: EKVX NSCLC
# [59] = system: HCT-15 colon
smiles,measurement,setting,value
Cc1csc2[n+]1C(=O)/C(=C\c1ccc([N+](=O)[O-])cc1)S2,TGI,[1],> 100 µM
same,TGI,[2],43.9 µM
same,TGI,[3],> 100 µM
same,TGI,[4],> 100 µM
same,TGI,[5],68.6 µM
same,TGI,[6],82.6 µM
same,TGI,[7],45.5 µM
same,TGI,[8],59.9 µM
same,TGI,[9],65.5 µM
same,TGI,[10],> 100 µM
same,TGI,[11],26.9 µM
same,TGI,[12],60.4 µM
same,TGI,[13],65.1 µM
same,TGI,[14],39.9 µM
same,TGI,[15],75.2 µM
same,TGI,[16],56.4 µM
same,TGI,[17],64.4 µM
same,TGI,[18],57.1 µM
same,TGI,[19],65.7 µM
same,TGI,[20],> 100 µM
same,TGI,[21],> 100 µM
same,TGI,[22],85.1 µM
same,TGI,[23],> 100 µM
same,TGI,[24],75.5 µM
same,TGI,[25],74.3 µM
same,TGI,[26],47.7 µM
same,TGI,[27],63.6 µM
same,TGI,[28],99.3 µM
same,TGI,[29],58.8 µM
same,TGI,[30],> 100 µM
same,TGI,[31],87.3 µM
same,TGI,[32],> 100 µM
same,TGI,[33],> 100 µM
same,TGI,[34],38.7 µM
same,TGI,[35],82.2 µM
same,TGI,[36],> 100 µM
same,TGI,[37],33.1 µM
same,TGI,[38],86.5 µM
same,TGI,[39],48.6 µM
same,TGI,[40],39.3 µM
same,TGI,[41],60.2 µM
same,TGI,[42],55 µM
same,TGI,[43],> 100 µM
same,TGI,[44],> 100 µM
same,TGI,[45],41.9 µM
same,TGI,[46],45.7 µM
same,TGI,[47],82.1 µM
same,TGI,[48],63.3 µM
same,TGI,[49],> 100 µM
same,TGI,[50],> 100 µM
same,TGI,[51],41 µM
same,TGI,[52],71.8 µM
same,TGI,[53],> 100 µM
COC(=O)C1(CCC(C)=O)CCCCCC1=O (stereo not given),TGI,[1],> 100 µM
same,TGI,[2],> 100 µM
same,TGI,[4],> 100 µM
same,TGI,[5],> 100 µM
same,TGI,[6],> 100 µM
same,TGI,[7],> 100 µM
same,TGI,[8],> 100 µM
same,TGI,[54],> 100 µM
same,TGI,[9],> 100 µM
same,TGI,[10],> 100 µM
same,TGI,[11],> 100 µM
same,TGI,[12],> 100 µM
same,TGI,[13],> 100 µM
same,TGI,[55],> 100 µM
same,TGI,[14],> 100 µM
same,TGI,[15],> 100 µM
same,TGI,[56],> 100 µM
same,TGI,[16],> 100 µM
same,TGI,[18],> 100 µM
same,TGI,[19],> 100 µM
same,TGI,[20],> 100 µM
same,TGI,[21],> 100 µM
same,TGI,[22],> 100 µM
same,TGI,[23],> 100 µM
same,TGI,[24],> 100 µM
same,TGI,[26],> 100 µM
same,TGI,[27],> 100 µM
same,TGI,[28],> 100 µM
same,TGI,[29],> 100 µM
same,TGI,[57],> 100 µM
same,TGI,[30],> 100 µM
same,TGI,[31],> 100 µM
same,TGI,[32],> 100 µM
same,TGI,[33],> 100 µM
same,TGI,[34],> 100 µM
same,TGI,[35],> 100 µM
same,TGI,[36],> 100 µM
same,TGI,[37],> 100 µM
same,TGI,[38],> 100 µM
same,TGI,[58],> 100 µM
same,TGI,[39],> 100 µM
same,TGI,[40],> 100 µM
same,TGI,[41],> 100 µM
same,TGI,[42],> 100 µM
same,TGI,[43],> 100 µM
same,TGI,[59],> 100 µM
same,TGI,[44],> 100 µM
same,TGI,[45],> 100 µM
same,TGI,[46],> 100 µM
same,TGI,[47],> 100 µM
same,TGI,[48],> 100 µM
same,TGI,[50],> 100 µM
same,TGI,[51],> 100 µM
same,TGI,[52],> 100 µM
same,TGI,[53],> 100 µM
CSc1nc(C#N)c(/N=C\N(C)C)n1C,TGI,[1],> 100 µM
same,TGI,[3],> 100 µM
same,TGI,[4],> 100 µM
same,TGI,[5],> 100 µM
same,TGI,[6],> 100 µM
same,TGI,[7],> 100 µM
same,TGI,[8],> 100 µM
same,TGI,[54],> 100 µM
same,TGI,[9],> 100 µM
same,TGI,[10],> 100 µM
same,TGI,[11],> 100 µM
same,TGI,[12],> 100 µM
same,TGI,[13],> 100 µM
same,TGI,[55],> 100 µM
same,TGI,[14],> 100 µM
same,TGI,[15],> 100 µM
same,TGI,[56],> 100 µM
same,TGI,[16],> 100 µM
same,TGI,[17],> 100 µM
same,TGI,[19],> 100 µM
same,TGI,[20],> 100 µM
same,TGI,[21],> 100 µM
same,TGI,[22],> 100 µM
same,TGI,[23],> 100 µM
same,TGI,[24],> 100 µM
same,TGI,[25],> 100 µM
same,TGI,[26],> 100 µM
same,TGI,[27],> 100 µM
same,TGI,[28],> 100 µM
same,TGI,[29],> 100 µM
same,TGI,[57],> 100 µM
same,TGI,[30],> 100 µM
same,TGI,[31],> 100 µM
same,TGI,[32],> 100 µM
same,TGI,[33],> 100 µM
same,TGI,[34],> 100 µM
same,TGI,[35],> 100 µM
same,TGI,[36],> 100 µM
same,TGI,[37],> 100 µM
same,TGI,[38],> 100 µM
same,TGI,[58],> 100 µM
same,TGI,[39],> 100 µM
same,TGI,[40],> 100 µM
same,TGI,[42],> 100 µM
same,TGI,[59],> 100 µM
same,TGI,[44],> 100 µM
same,TGI,[45],> 100 µM
same,TGI,[46],> 100 µM
same,TGI,[47],> 100 µM
same,TGI,[48],> 100 µM
same,TGI,[49],> 100 µM
same,TGI,[50],> 100 µM
same,TGI,[51],> 100 µM
same,TGI,[52],> 100 µM
same,TGI,[53],> 100 µM
C=CCN1C(=O)C=C(c2ccccc2)n2ncc3cccc1c32,TGI,[1],> 100 µM
same,TGI,[3],> 100 µM
same,TGI,[5],> 100 µM
same,TGI,[7],> 100 µM
same,TGI,[54],> 100 µM
same,TGI,[9],> 100 µM
same,TGI,[10],> 100 µM
same,TGI,[11],> 100 µM
same,TGI,[12],> 100 µM
same,TGI,[13],> 100 µM
same,TGI,[55],> 100 µM
same,TGI,[14],> 100 µM
same,TGI,[15],> 100 µM
same,TGI,[56],> 100 µM
same,TGI,[16],> 100 µM
same,TGI,[17],> 100 µM
same,TGI,[19],> 100 µM
same,TGI,[20],> 100 µM
same,TGI,[21],> 100 µM
same,TGI,[22],> 100 µM
same,TGI,[23],> 100 µM
same,TGI,[24],> 100 µM
same,TGI,[25],> 100 µM
same,TGI,[26],> 100 µM
same,TGI,[27],> 100 µM
same,TGI,[28],> 100 µM
same,TGI,[29],> 100 µM
same,TGI,[57],> 100 µM
same,TGI,[30],> 100 µM
same,TGI,[31],> 100 µM
same,TGI,[33],> 100 µM
same,TGI,[34],> 100 µM
same,TGI,[35],> 100 µM
same,TGI,[36],> 100 µM
same,TGI,[37],> 100 µM
same,TGI,[38],> 100 µM
same,TGI,[58],> 100 µM
same,TGI,[39],> 100 µM
same,TGI,[40],> 100 µM
same,TGI,[41],> 100 µM
same,TGI,[42],> 100 µM
same,TGI,[43],> 100 µM
same,TGI,[59],> 100 µM
same,TGI,[44],> 100 µM
same,TGI,[46],> 100 µM
same,TGI,[47],> 100 µM
same,TGI,[48],> 100 µM
same,TGI,[49],> 100 µM
same,TGI,[50],> 100 µM
same,TGI,[51],> 100 µM
same,TGI,[52],> 100 µM
same,TGI,[53],> 100 µM
